Here are results for one compound from BindingDB's records for doi:10.1016/j.ejmech.2020.112339 (China Pharmaceutical University, 2020).

A short description of the test: Inhibition of BTK in human TMD8 cells assessed as reduction in cell proliferation incubated for 24 hrs by CCK-8 assay. Background: Tetrazolium assays rely on reduction of a dye to a coloured formazan, in cell work by metabolically active cells.

`C=CC(=O)Nc1cccc(Nc2ncnc(Nc3ccc(C(=O)N4CCCCC4)cc3)n2)c1`: the IC50 was 4.36 µM.

By IC50 is commonly meant the concentration at which inhibition is half-maximal.
